Measured values as given in ChEMBL document CHEMBL4265904, “Hybrids of arenobufagin and benzoisoselenazol reducing the cardiotoxicity of arenobufagin” (Bioorg Med Chem Lett, 2018).
Activity calls are given as the source filed them. The calls are words filed in the database; no cut-off is given here.

Columns and labels:
[1] = tested on: HepG2; assay: Antiproliferative activity against human HepG2 cells by MTT assay; type: functional, cell-based
[2] = Antiproliferative activity against human AC16 cells by MTT assay; type: cell-based
[3] = Antiproliferative activity against human HepG2/ADM cells by MTT assay; type: functional, cell-based
[4] = Selectivity index, ratio of IC50 for human AC16 cells to IC50 for human HepG2 cells; type: toxicity; conditions: AC16 cells and HepG2 cells, read-out: Ratio IC50
[5] = Cytotoxic activity against human AC16 cells assessed as cell swelling at 1 uM after 24 hrs by phase contrast microscopic method; type: cell-based
[6] = Cytotoxic activity against human AC16 cells assessed as cell detachment from substratum at 1 uM after 24 hrs by phase contrast microscopic method; type: cell-based
[7] = tested on: HepG2; assay: Inhibition of ROS generation in human HepG2 cells at 1 uM after 2 hrs by DCFH-DA staining based method; type: functional, cell-based
[8] = organism: Homo sapiens; assay: Cytoprotective activity against H2O2-induced oxidative damage in human AC16 cells at 1 uM preincubated for 30 mins followed by H2O2 addition and measured after 6 hrs; type: functional, cell-based
[9] = tested on: HepG2; assay: Antiproliferative activity against human HepG2 cells after 48 hrs by MTT assay; type: functional, cell-based; conditions: HepG2, 48 h
[10] = Toxicity in ip dosed Kunming mouse assessed as mortality; type: organism-based; conditions: in vivo

Structure (SMILES) | IC50 [1] [nM] | IC50 [2] [nM] | IC50 [3] [nM] | selectivity ratio [4] | Activity [5] | Activity [6] | inhibition [7] | Activity [8] | IC50 [9] [nM] | LD50 [10] [mg/kg]
C[C@]12CC[C@H](OC(=O)[C@H](Cc3ccccc3)n3[se]c4cc(C(F)(F)F)ccc4c3=O)C[C@H]1CC[C@@H]1[C@@H]2[C@H](O)C(=O)[C@]2(C)[C@@H](c3ccc(=O)oc3)CC[C@]12O | 265 | 4300 | 9740 | 16.2 | Non-Toxic | Non-Toxic | Active | Active |  | 
O=c1c2ccccc2[se]n1-c1ccccc1 |  |  |  |  |  |  |  | Active |  | 
C[C@]12CC[C@H](OC(=O)[C@H](Cc3ccccc3)n3[se]c4ccccc4c3=O)C[C@H]1CC[C@@H]1[C@@H]2[C@H](O)C(=O)[C@]2(C)[C@@H](c3ccc(=O)oc3)CC[C@]12O | 339 | 3210 | 5590 | 9.47 | Non-Toxic | Non-Toxic | Active | Active |  | 
C[C@]12CC[C@H](O)C[C@H]1CC[C@@H]1[C@@H]2[C@H](O)C(=O)[C@]2(C)[C@@H](c3ccc(=O)oc3)CC[C@]12O | 20 | 5 | 56 | 0.25 | Toxic | Toxic |  |  | 0.1 to 10 | 20
Cc1ccc2c(=O)n(CC(=O)O[C@H]3CC[C@@]4(C)[C@H](CC[C@@H]5[C@@H]4[C@H](O)C(=O)[C@]4(C)[C@@H](c6ccc(=O)oc6)CC[C@]54O)C3)[se]c2c1 | 607 | 2130 | 2450 | 3.51 |  |  |  |  |  | 
COc1ccc2c(=O)n([C@@H](Cc3ccccc3)C(=O)O[C@H]3CC[C@@]4(C)[C@H](CC[C@@H]5[C@@H]4[C@H](O)C(=O)[C@]4(C)[C@@H](c6ccc(=O)oc6)CC[C@]54O)C3)[se]c2c1 | 305 | 2200 | 5860 | 7.21 | Non-Toxic | Non-Toxic | Active | Active |  | 
CC[C@H](C)[C@@H](C(=O)O[C@H]1CC[C@@]2(C)[C@H](CC[C@@H]3[C@@H]2[C@H](O)C(=O)[C@]2(C)[C@@H](c4ccc(=O)oc4)CC[C@]32O)C1)n1[se]c2cc(OC)ccc2c1=O | 14500 | 15000 | 36700 | 1.03 |  |  |  |  |  | 
Cc1ccc2c(=O)n([C@@H](Cc3ccccc3)C(=O)O[C@H]3CC[C@@]4(C)[C@H](CC[C@@H]5[C@@H]4[C@H](O)C(=O)[C@]4(C)[C@@H](c6ccc(=O)oc6)CC[C@]54O)C3)[se]c2c1 | 489 | 3570 | 7940 | 7.3 | Non-Toxic | Non-Toxic |  | Active |  | 
